This note sets out measurements from PMC5218480 (PLoS ONE, 2017).

The test system of the experiment is MV-4-11 cells. The experiment can be described thus: Gene expression microarray analysis (Affymetrix PrimeView) and GSEA. Format: cell-based, human. Set-up: RFU PODN (11730768_x_at) / Fold change /veh PODN (11730768_x_at) / RFU LINC00158 (11744669_a_at) / Fold change /veh LINC00158 (11744669_a_at) / RFU DUSP10 (11751237_a_at) / Fold change /veh DUSP10 (11751237_a_at) / RFU ID3 (11757404_x_at) / Fold change /veh ID3 (11757404_x_at) / RFU PLEKHG5 (11737974_s_at) / Fold change /veh PLEKHG5 (11737974_s_at) / RFU LRRC4B (11730491_at) / Fold change /veh LRRC4B (11730491_at) / RFU GIMAP4 (11747438_a_at) / Fold change /veh GIMAP4 (11747438_a_at) / RFU KRT8 (11758183_x_at) / Fold change /veh KRT8 (11758183_x_at) / RFU CNN1 (11734310_a_at) / Fold change /veh CNN1 (11734310_a_at) / RFU VPS37D (11726825_at) / Fold change /veh VPS37D (11726825_at) / RFU C10orf10 (11716522_x_at) / Fold change /veh C10orf10 (11716522_x_at) / RFU KIR2DL2 /// KIR2DL4 /// KIR2DL5A /// KIR2DL5B /// KIR2DS1 /// KIR2DS2 /// KIR2DS3 /// KIR2DS4 /// KIR3DL3 /// KIR3DL3 /// KIR3DS1 (11738374_at) / Fold change /veh KIR2DL2 /// KIR2DL4 /// KIR2DL5A /// KIR2DL5B /// KIR2DS1 /// KIR2DS2 /// KIR2DS3 /// KIR2DS4 /// KIR3DL3 /// KIR3DL3 /// KIR3DS1 (11738374_at) / RFU C1QL1 (11718748_at) / Fold change /veh C1QL1 (11718748_at) / RFU TMPRSS4 (11747572_a_at) / Fold change /veh TMPRSS4 (11747572_a_at) / RFU HAMP (11756126_x_at) / Fold change /veh HAMP (11756126_x_at) / RFU RNFT2 (11725882_a_at) / Fold change /veh RNFT2 (11725882_a_at) / RFU NR4A2 (11747474_a_at) / Fold change /veh NR4A2 (11747474_a_at) / RFU ABCC12 (11746883_a_at) / Fold change /veh ABCC12 (11746883_a_at) / RFU TMEM136 (11760407_x_at) / Fold change /veh TMEM136 (11760407_x_at) / RFU CLDN22 /// WWC2 (11732394_at) / Fold change /veh CLDN22 /// WWC2 (11732394_at) / RFU HLA-DPB1 (11760878_x_at) / Fold change /veh HLA-DPB1 (11760878_x_at) / RFU SPINT1 (11716480_a_at) / Fold change /veh SPINT1 (11716480_a_at) / RFU GAP43 (11754022_s_at) / Fold change /veh GAP43 (11754022_s_at) / RFU A4GNT (11735810_at) / Fold change /veh A4GNT (11735810_at) / RFU PRB3 (11715151_x_at) / Fold change /veh PRB3 (11715151_x_at) / RFU TUBB4B (11761932_at) / Fold change /veh TUBB4B (11761932_at) / RFU CAPN14 (11732068_a_at) / Fold change /veh CAPN14 (11732068_a_at) / RFU TMCC2 (11721928_a_at) / Fold change /veh TMCC2 (11721928_a_at) / RFU IRGQ (11745062_a_at) / Fold change /veh IRGQ (11745062_a_at) / RFU FAM174B (11720279_a_at) / Fold change /veh FAM174B (11720279_a_at) / RFU TMPRSS4 (11748680_a_at) / Fold change /veh TMPRSS4 (11748680_a_at) / RFU FAM212B (11763350_a_at) / Fold change /veh FAM212B (11763350_a_at) / RFU PLEKHG5 (11743358_a_at) / Fold change /veh PLEKHG5 (11743358_a_at) / RFU ZSCAN30 (11745921_a_at) / Fold change /veh ZSCAN30 (11745921_a_at) / RFU CMKLR1 (11741424_a_at) / Fold change /veh CMKLR1 (11741424_a_at) / RFU LOC101060620 /// MAPK8IP1 (11723275_at) / Fold change /veh LOC101060620 /// MAPK8IP1 (11723275_at) / RFU SPTSSB (11747773_x_at) / Fold change /veh SPTSSB (11747773_x_at) / RFU PRSS12 (11739890_at) / Fold change /veh PRSS12 (11739890_at) / RFU BIN1 (11741810_x_at) / Fold change /veh BIN1 (11741810_x_at) / RFU WNT11 (11732464_a_at) / Fold change /veh WNT11 (11732464_a_at) / RFU C10orf10 (11716521_a_at) / Fold change /veh C10orf10 (11716521_a_at) / RFU C5orf56 (11738089_at) / Fold change /veh C5orf56 (11738089_at) / RFU CYB561 (11721691_x_at) / Fold change /veh CYB561 (11721691_x_at) / RFU ANKRD19P (11752326_a_at) / Fold change /veh ANKRD19P (11752326_a_at) / RFU OR2T12 /// OR2T33 /// OR2T8 (11738714_s_at) / Fold change /veh OR2T12 /// OR2T33 /// OR2T8 (11738714_s_at) / RFU VCAN (11748164_a_at) / Fold change /veh VCAN (11748164_a_at) / RFU JSRP1 (11732532_at) / Fold change /veh JSRP1 (11732532_at) / RFU KRTAP10-11 (11738290_x_at) / Fold change /veh KRTAP10-11 (11738290_x_at) / RFU MYO3A (11730013_a_at) / Fold change /veh MYO3A (11730013_a_at) / RFU EBF3 (11725865_a_at) / Fold change /veh EBF3 (11725865_a_at) / RFU CAMK2N1 (11719241_x_at) / Fold change /veh CAMK2N1 (11719241_x_at) / RFU C5orf56 (11738088_a_at) / Fold change /veh C5orf56 (11738088_a_at) / RFU OLFML3 (11715873_a_at) / Fold change /veh OLFML3 (11715873_a_at) / RFU LOC100653217 /// NTM (11731650_a_at) / Fold change /veh LOC100653217 /// NTM (11731650_a_at) / RFU MAPK11 (11762145_a_at) / Fold change /veh MAPK11 (11762145_a_at) / RFU FIZ1 (11724087_x_at) / Fold change /veh FIZ1 (11724087_x_at) / RFU OASL (11726364_x_at) / Fold change /veh OASL (11726364_x_at) / RFU SOX15 (11748057_x_at) / Fold change /veh SOX15 (11748057_x_at) / RFU CD79A (11719716_a_at) / Fold change /veh CD79A (11719716_a_at) / RFU HIST1H1D (11736915_at) / Fold change /veh HIST1H1D (11736915_at) / RFU CASKIN2 (11723855_a_at) / Fold change /veh CASKIN2 (11723855_a_at) / RFU LOC730098 (11760151_x_at) / Fold change /veh LOC730098 (11760151_x_at) / RFU OR4N2 (11742367_at) / Fold change /veh OR4N2 (11742367_at) / RFU PRRT2 (11749266_a_at) / Fold change /veh PRRT2 (11749266_a_at) / RFU SNX32 (11753110_a_at) / Fold change /veh SNX32 (11753110_a_at) / RFU CDHR5 (11726645_a_at) / Fold change /veh CDHR5 (11726645_a_at) / RFU RCAN1 (11760418_a_at) / Fold change /veh RCAN1 (11760418_a_at) / RFU FAM167A (11723789_a_at) / Fold change /veh FAM167A (11723789_a_at) / RFU FAM26E (11764081_at) / Fold change /veh FAM26E (11764081_at) / RFU ISYNA1 (11749810_s_at) / Fold change /veh ISYNA1 (11749810_s_at) / RFU ACY1 (11761880_at) / Fold change /veh ACY1 (11761880_at) / RFU 11764098_at / Fold change /veh 11764098_at / RFU SAMD14 (11745864_x_at) / Fold change /veh SAMD14 (11745864_x_at) / RFU NPB (11741838_a_at) / Fold change /veh NPB (11741838_a_at) / RFU TMPRSS6 (11731388_a_at) / Fold change /veh TMPRSS6 (11731388_a_at) / RFU KRTAP10-2 (11738614_at) / Fold change /veh KRTAP10-2 (11738614_at) / RFU ARHGAP8 /// PRR5-ARHGAP8 (11727945_x_at) / Fold change /veh ARHGAP8 /// PRR5-ARHGAP8 (11727945_x_at) / RFU KRTAP5-7 /// NADSYN1 (11734609_at) / Fold change /veh KRTAP5-7 /// NADSYN1 (11734609_at) / RFU RASL12 (11751679_a_at) / Fold change /veh RASL12 (11751679_a_at) / RFU CDKN2B (11736163_a_at) / Fold change /veh CDKN2B (11736163_a_at) / RFU PRF1 (11729649_at) / Fold change /veh PRF1 (11729649_at) / RFU, ZNF638 /// ZNF638-IT1 / Fold change vs veh, ZNF638 /// ZNF638-IT1 / RFU, PANK3 / Fold change vs veh, PANK3 / RFU, SH3YL1 / Fold change vs veh, SH3YL1 / RFU, ZEB2 / Fold change vs veh, ZEB2 / RFU, NRIP1 / Fold change vs veh, NRIP1 / RFU, PTTG1IP / Fold change vs veh, PTTG1IP / RFU, CAPN2 / Fold change vs veh, CAPN2 / RFU, MED14 / Fold change vs veh, MED14 / RFU, SNORA58 / Fold change vs veh, SNORA58 / RFU, C1orf63 / Fold change vs veh, C1orf63 / RFU, LRRFIP1 / Fold change vs veh, LRRFIP1 / RFU, NDUFAF7 / Fold change vs veh, NDUFAF7 / RFU, SLC12A2 / Fold change vs veh, SLC12A2 / RFU, IBTK / Fold change vs veh, IBTK / RFU, ESF1 / Fold change vs veh, ESF1 / Fold change vs veh, TMEM50B / RFU, TAOK1 / Fold change vs veh, TAOK1 / RFU, ACBD3 / Fold change vs veh, ACBD3 / RFU, TMA16 / Fold change vs veh, TMA16 / RFU, RWDD3 / Fold change vs veh, RWDD3 / RFU, BCAT1 / Fold change vs veh, BCAT1 / RFU, EDEM3 / Fold change vs veh, EDEM3 / RFU, TMEM33 / Fold change vs veh, TMEM33 / RFU, WDR75 / Fold change vs veh, WDR75 / RFU, AHCTF1 / Fold change vs veh, AHCTF1 / RFU, TFRC / Fold change vs veh, TFRC / RFU, ZDHHC17 / Fold change vs veh, ZDHHC17 / RFU, NOM1 / Fold change vs veh, NOM1 / RFU, ARL8B / Fold change vs veh, ARL8B / RFU, ZBTB11 / Fold change vs veh, ZBTB11 / RFU, TAMM41 / Fold change vs veh, TAMM41 / RFU, KIAA1704 /// LOC100996395 / Fold change vs veh, KIAA1704 /// LOC100996395 / RFU, ING1 / Fold change vs veh, ING1 / RFU, TRMT61B / Fold change vs veh, TRMT61B / RFU, FUBP3 / Fold change vs veh, FUBP3 / RFU, TP53 / Fold change vs veh, TP53 / RFU, TNKS2 / Fold change vs veh, TNKS2 / RFU, ZFP14 / Fold change vs veh, ZFP14 / RFU, ACTR2 / Fold change vs veh, ACTR2 / RFU, PPP3R1 / Fold change vs veh, PPP3R1 / RFU, PIK3R1 / Fold change vs veh, PIK3R1 / RFU, HNRNPA1 / Fold change vs veh, HNRNPA1 / RFU, RNF170 / Fold change vs veh, RNF170 / RFU, ZNF28 / Fold change vs veh, ZNF28 / RFU, RNGTT / Fold change vs veh, RNGTT / RFU, OGT / Fold change vs veh, OGT / RFU, BRD1 / Fold change vs veh, BRD1 / RFU, MARS / Fold change vs veh, MARS / RFU, ZNF655 / Fold change vs veh, ZNF655 / RFU, FAHD1 / Fold change vs veh, FAHD1 / RFU, BDP1 / Fold change vs veh, BDP1 / RFU, LRRCC1 / Fold change vs veh, LRRCC1 / RFU, ARID1A / Fold change vs veh, ARID1A / RFU, ZNF146 / Fold change vs veh, ZNF146 / RFU, ZNF330 / Fold change vs veh, ZNF330 / RFU, GPN3 / Fold change vs veh, GPN3 / RFU, C9orf123 / Fold change vs veh, C9orf123 / RFU, N4BP2L2 / Fold change vs veh, N4BP2L2 / RFU, ARFIP1 / Fold change vs veh, ARFIP1 / RFU, FAM179B / Fold change vs veh, FAM179B / RFU, BCL10 / Fold change vs veh, BCL10 / RFU, UHRF1BP1L / Fold change vs veh, UHRF1BP1L / RFU, BET1 / Fold change vs veh, BET1 / RFU, CNOT2 / Fold change vs veh, CNOT2 / RFU, ZNF268 / Fold change vs veh, ZNF268 / Fold change vs veh, ZNF507 / RFU, DGCR2 / Fold change vs veh, DGCR2 / RFU, WDSUB1 / Fold change vs veh, WDSUB1 / Fold change vs veh, HSP90B1 /// MIR3652 / RFU, ADSS / Fold change vs veh, ADSS / RFU, GK / Fold change vs veh, GK / RFU, ZNF148 / Fold change vs veh, ZNF148 / RFU, TAF9 / Fold change vs veh, TAF9 / RFU, SLC1A5 / Fold change vs veh, SLC1A5 / RFU, SLMO2 / Fold change vs veh, SLMO2 / RFU, ABCC4 / Fold change vs veh, ABCC4 / RFU, LOC101060439 /// RAP1B / Fold change vs veh, LOC101060439 /// RAP1B / RFU, RFX7 / Fold change vs veh, RFX7 / RFU, GTPBP10 / Fold change vs veh, GTPBP10 / RFU, CNEP1R1 / Fold change vs veh, CNEP1R1 / RFU, BIVM-ERCC5 /// ERCC5 / Fold change vs veh, BIVM-ERCC5 /// ERCC5 / RFU, ILF3 / Fold change vs veh, ILF3 / RFU 11762660_at / Fold change /veh 11762660_at / RFU VCAN (11757783_s_at) / Fold change /veh VCAN (11757783_s_at) / RFU DDX43 (11728927_at) / Fold change /veh DDX43 (11728927_at) / RFU KRT8 (11758188_x_at) / Fold change /veh KRT8 (11758188_x_at) / RFU NKD1 (11759106_at) / Fold change /veh NKD1 (11759106_at) / RFU SRD5A1 (11742802_a_at) / Fold change /veh SRD5A1 (11742802_a_at) / RFU TPSAB1 /// TPSB2 (11721975_s_at) / Fold change /veh TPSAB1 /// TPSB2 (11721975_s_at) / RFU GSTM3 (11746129_a_at) / Fold change /veh GSTM3 (11746129_a_at) / RFU IL23R (11737362_x_at) / Fold change /veh IL23R (11737362_x_at) / RFU TMEM51 (11727254_a_at) / Fold change /veh TMEM51 (11727254_a_at) / RFU PIWIL2 (11732686_x_at) / Fold change /veh PIWIL2 (11732686_x_at) / RFU ORM1 (11744905_x_at) / Fold change /veh ORM1 (11744905_x_at) / RFU CCDC152 (11743942_at) / Fold change /veh CCDC152 (11743942_at) / RFU ECM1 (11717891_a_at) / Fold change /veh ECM1 (11717891_a_at) / RFU IL23R (11748794_a_at) / Fold change /veh IL23R (11748794_a_at) / RFU TNFAIP8L3 (11732012_x_at) / Fold change /veh TNFAIP8L3 (11732012_x_at) / RFU MBOAT4 (11741988_at) / Fold change /veh MBOAT4 (11741988_at) / RFU 11764193_at / Fold change /veh 11764193_at / RFU TMEM53 (11763286_at) / Fold change /veh TMEM53 (11763286_at) / RFU MAGEB2 (11727129_at) / Fold change /veh MAGEB2 (11727129_at) / RFU TMEM200A (11744735_a_at) / Fold change /veh TMEM200A (11744735_a_at) / RFU CCDC152 (11751479_a_at) / Fold change /veh CCDC152 (11751479_a_at) / RFU FAM211A (11726209_a_at) / Fold change /veh FAM211A (11726209_a_at) / RFU RGS16 (11746705_a_at) / Fold change /veh RGS16 (11746705_a_at) / RFU VCAN (11755009_s_at) / Fold change /veh VCAN (11755009_s_at) / RFU RHOB (11743442_s_at) / Fold change /veh RHOB (11743442_s_at) / RFU RGS16 (11720943_a_at) / Fold change /veh RGS16 (11720943_a_at) / RFU RGS16 (11720944_at) / Fold change /veh RGS16 (11720944_at) / RFU, VPS4B / Fold change vs veh, VPS4B / RFU, CREB1 / Fold change vs veh, CREB1 / RFU, DNAJC13 / Fold change vs veh, DNAJC13 / RFU, GNAQ / Fold change vs veh, GNAQ / RFU, CDK5R1 / Fold change vs veh, CDK5R1 / RFU, ZRANB3 / Fold change vs veh, ZRANB3 / RFU, CUL4A / Fold change vs veh, CUL4A / RFU, CCNY / Fold change vs veh, CCNY / RFU, UFL1 / Fold change vs veh, UFL1 / RFU, COG3 / Fold change vs veh, COG3 / RFU, DIAPH2 / Fold change vs veh, DIAPH2 / RFU, SKA2 / Fold change vs veh, SKA2 / RFU, AFF3 / Fold change vs veh, AFF3 / RFU, LMF1 / Fold change vs veh, LMF1 / RFU, IPO11 / Fold change vs veh, IPO11 / RFU, DFFB / Fold change vs veh, DFFB / RFU, FOXP1 / Fold change vs veh, FOXP1 / RFU, CARD8 / Fold change vs veh, CARD8 / RFU, STRN3 / Fold change vs veh, STRN3 / RFU, ADK / Fold change vs veh, ADK / RFU, RASSF2 / Fold change vs veh, RASSF2 / RFU, WIPF1 / Fold change vs veh, WIPF1 / RFU, LARP1B / Fold change vs veh, LARP1B / RFU, RASA1 / Fold change vs veh, RASA1 / RFU, RB1 / Fold change vs veh, RB1 / RFU, PPFIA1 / Fold change vs veh, PPFIA1 / RFU, MAT2A / Fold change vs veh, MAT2A / RFU, CCT5 / Fold change vs veh, CCT5 / RFU, WDR92 / Fold change vs veh, WDR92 / RFU, CUX1 / Fold change vs veh, CUX1 / RFU, TTC7A / Fold change vs veh, TTC7A / RFU, TMEM135 / Fold change vs veh, TMEM135 / RFU, DEPTOR / Fold change vs veh, DEPTOR / RFU, CPM / Fold change vs veh, CPM / RFU, DNAJB6 / Fold change vs veh, DNAJB6 / RFU, CACNA2D3 / Fold change vs veh, CACNA2D3 / RFU, DTX4 / Fold change vs veh, DTX4 / RFU, TFCP2 / Fold change vs veh, TFCP2 / RFU, GMCL1 /// GMCL1P1 / Fold change vs veh, GMCL1 /// GMCL1P1 / RFU, AEBP2 / Fold change vs veh, AEBP2 / RFU, SNHG1 /// SNORD22 /// SNORD25 /// SNORD26 /// SNORD27 /// SNORD28 /// SNORD29 /// SNORD31 / Fold change vs veh, SNHG1 /// SNORD22 /// SNORD25 /// SNORD26 /// SNORD27 /// SNORD28 /// SNORD29 /// SNORD31 / Fold change (Aza/veh), C12orf56 (ProbeSet 11735607_a_at) / Fold change (ACY-1035/veh), C12orf56 (ProbeSet 11735607_a_at) / Fold change (Aza/veh), FGFR1OP (ProbeSet 11751329_s_at) / Fold change (ACY-1035/veh), FGFR1OP (ProbeSet 11751329_s_at) / Fold change (Aza/veh), VPS36 (ProbeSet 11739960_a_at) / Fold change (ACY-1035/veh), VPS36 (ProbeSet 11739960_a_at) / RFU SYPL1 (11715823_x_at) / Fold change /veh SYPL1 (11715823_x_at) / RFU IGFBP7 (11715501_s_at) / Fold change /veh IGFBP7 (11715501_s_at) / RFU REEP3 (11722064_at) / Fold change /veh REEP3 (11722064_at) / RFU IGLL1 (11728026_x_at) / Fold change /veh IGLL1 (11728026_x_at): dose or concentration left out as unconfirmed. As to conditions: MV-4-11 cells, 48 hours.

Regarding `Nc1ncn([C@@H]2O[C@H](CO)[C@@H](O)[C@H]2O)c(=O)n1` [azacitidine], the “Fold change /veh HIST1H1D (11736915_at)” value is listed as 1.16.
